Data reported in US20250235499A1, “ANTI-OVARIAN CANCER PHARMACEUTICAL COMPOSITION AND ACTION TARGET THEREOF” (Zhejiang Chinese Medical University, priority 2024, published 2025).

Key:
[1] = system: MCM2, CDK4, Cyclin D1, P21; assay: Western Blot of tumor body cyclin in tumor bearing nude mice; type: in vivo, BALB/c nude mice; settings: nude mouse tumor body, compared to the Control group
Excerpt: The expression of nude mice tumor body cyclin and EMT related proteins in tumor bearing nude mice after intervention with DDP, CA, BDMC, and combined administration was shown in FIG. 29. In the figure, 1 represented the Control group; 2 represented the DDP group; 3 represented the CA group; 4 represented the BDMC group; and 5 represented the CA+BDMC group.

Hey ovarian cancer cell = assay: Tumor bearing nude mouse model (tumor volume, tumor inhibition rate, body weight); type: in vivo, BALB/c nude mice; settings: intraperitoneal, 15 days; DDP 3 mg/kg, CA 80 mg/kg, BDMC 5 mg/kg; compared to the Control group, P<0.01
Experimental: Newly housed BALB/c nude mice were placed in an SPF grade feeding room laminar flow rack for adaptive feeding for one week, and the experimental animal status was adjusted. A Hey ovarian cancer cell was cultivated to the logarithmic growth stage, and the original culture medium was discarded. The Hey ovarian cancer cell was washed with PBS buffer, added with 0.1% trypsin digestion for digestion, added with the corresponding culture medium to terminate digestion, centrifuged at 1000 rpm for 3 minutes, and added with PBS buffer to prepare a cell suspension. The cell was counted using a hemocytometer, and the cell concentration was quantified to 5×10^7 cells/mL. After grasping and fixing the nude mouse with the left hand, and the skin at a needle inserting site on the right forelimb axilla of the nude mouse was disinfected with a 75% alcohol cotton ball. A disposable 1 mL syringe was used to inject approximately 100 μL of cell suspension subcutaneously into the posterior axilla of the right forelimb in an oblique stabbing inserting needle mode, so that each nude mouse was injected with approximately 5×10^6 cells. After vaccination, the needle inserting site was gently pressed with a cotton ball to prevent the cell suspension from leaking from a needle hole. The growth status of tumors at the vaccination site of nude mice was observed daily. After about one week, if the tumors at the vaccination site were compacted and appeared light red in color, it could be considered as successful tumor growth. At this time, the nude mice were randomly divided into 5 groups, a Control group intraperitoneally injected with physiological saline for 1 day each time; a DDP group intraperitoneally injected with cisplatin, 3 mg/kg, 3 d/time; a CA group intraperitoneally injected with CA, 80 mg/kg, 1 d/time; a BDMC group intraperitoneally injected with BDMC, 5 mg/kg, 1 d/time; a CA+BDMC group intraperitoneally injected with CA 80 mg/kg+BDMC 5 mg/kg, 1 d/time, 8 animals per group. A tumor length (L) and a […] were measured with a vernier caliper every 3 days to calculate a tumor volume. After 15 days of administration, nude mice were euthanized by dislocation of cervical vertebra, and tumor tissue was dissected. The tumor weight was weighed to calculate the tumor inhibition rate. The tumor tissue was stored in two batches at −80° C. and fixed with 4% paraformaldehyde.

SMILES: N.N.[Cl][Pt][Cl] [DDP, cisplatin, reference compound]
- expression of CDK4 protein (Western Blot) [1]: significantly decreased
- tumor inhibition rate (Hey ovarian cancer cell): significantly increased
- tumor volume size (Hey ovarian cancer cell): significantly reduced
